# Measurements published in US6451332B1, “Pesticidal composition having high pesticidal ingredient vaporization rate method for controlling pests, and method for producing a pesticidal composition” (Sumitomo Chemical Company, Limited, priority 1997, dated 2002).
# Tests used:
# [1] = Vaporization rate of the pesticidal ingredient (silica gel trap, acetone extraction, gas chromatography); format: physicochemical; settings: 10 g composition heated with 100 g calcium oxide and water; air sucked at 30 L/min for 5 min
# Protocol: Pesticidal devices were prepared in the same method as test examples 5 and 8, and had water poured to the calcium oxide. After the reaction of calcium oxide with water started, the pesticidal device was replaced to a glass funnel with a lid. The vaporizing pesticidal ingredient was then trapped to silica gel in glass column connected to the funnel by sucking air at 30 L/min for 5 m in. Subsequently, the pesticidal ingredient present in the silica gel was extracted with acetone. The vaporization rate for the pesticidal ingredient was then measured by the quantitative analysis of gas chromatography.
# A pesticidal device was prepared by placing:
# 1) 10 g of the pesticidal composition obtained in example 2 was placed interior to the separating wall of the container presented in FIG. 1 and
# 2) 100 g of calcium oxide with 1-20 mesh was placed exterior to the said separating wall but within the said container. The acquired pesticidal device was then tested for the vaporization rate by utilizing the procedure recited in test example 10.
# [2] = Japanese Laid-open patent No. sho-53-109945A, table 2, sample #23; cited from earlier work
Compound,vaporization rate for the pesticidal ingredient [1] [%],vaporization rate [2] [%]
COC(=O)c1cc(Cl)ccc1NS(=O)(=O)C(F)(F)F [2-methoxycarbonyl-4-chlorotrifluoromethanesulfonanilide],78.5,–
CC(C)=CC1C(C(=O)OCN2C(=O)C3=C(CCCC3)C2=O)C1(C)C (stereo not drawn) [tetramethrin],88.1,63.0
